Experimental data taken from US20240398805A1, “QUINAZOLINE DERIVED COMPOUNDS AS EGFR INHIBITORS AND THEIR USES THEREOF” (ACCUTAR BIOTECHNOLOGY INC., priority 2021, published 2024).

Columns and labels:
Type in all cases: cell-based
[1] = tested on: HCC827-YVMA cells (human ERBB2 exon20 insertion mutant A775_G776ins YVMA); experiment: Cell growth inhibition (CellTiter-Glo, 3 days) in HCC827-YVMA; details: 72 h, 3 days after administration
Method in brief: (§1)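 HCC827 cells lentivirally transduced with codon-optimized ASV or YVMA insertion mutants were seeded at 5000 cells/well in RPMI with 10% FBS and incubated overnight. Compound was added at various concentrations from a 10× stock in medium, with 3 days' incubation. Viability read by CellTiter-Glo luminescence.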

A431 cells = experiment: Cell growth inhibition (CellTiter-Glo, 3 days) in A431; details: Homo sapiens, A-431, 72 h, 3 days after administration
Method in brief: (§2)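 HCC827 cells in RPMI/10% FBS and A431 cells in DMEM/10% FBS were seeded at 5000 cells/well and left overnight. Compound was then added over a concentration range for 3 days of incubation, and viability was read by CellTiter-Glo luminescence.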

[2] = tested on: HCC827-SVD cells (human EGFR exon 20 insertion mutant D770_N771 insSVD); experiment: Cell growth inhibition (CellTiter-Glo, 3 days) in HCC827-SVD; details: 72 h, 3 days after administration
Method in brief: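 HCC827 cells carrying lentiviral codon-optimized EGFR D770_N771 insSVD, with endogenous EGFR knocked out by CRISPR (single clone), seeded at 5000 cells/well in RPMI with 10% FBS. Viability read by CellTiter-Glo luminescence.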

[3] = tested on: HCC827-ASV cells (human EGFR exon 20 insertion mutant A769_D770insASV); experiment: Cell growth inhibition (CellTiter-Glo, 3 days) in HCC827-ASV; details: 72 h, 3 days after administration
Method in brief: as §1

HCC827 cells = experiment: Cell growth inhibition (CellTiter-Glo, 3 days) in HCC827; details: Homo sapiens, 72 h, 3 days after administration
Method in brief: as §2

Structure (SMILES)	GI50 [1]	GI50 (A431 cells)	GI50 [2]	GI50 [3]	GI50 (HCC827 cells)
C=CC(=O)N1CCC(Nc2cc3c(Nc4ccc(Oc5ccnc(-n6cc(C)cn6)c5)cc4F)ncnc3cc2OC)CC1 [Compound 232, 1-(4-((4-((2-fluoro-4-((2-(4-methyl-1H-pyrazol-1-yl)pyridin-4-yl)oxy)phenyl)amino)-7-methoxyquinazolin-6-yl)amino)piperidin-1-yl)prop-2-en-1-one]	< 30 nM	≥ 1000 nM	30 to 60 nM	< 30 nM	60 to 100 nM
C=CC(=O)N1CCC(Nc2cc3c(Nc4ccc(Oc5ccnc(N6CC[C@H](O)[C@H](F)C6)c5)cc4F)ncnc3cc2OC)CC1 [Example 170, 1-(4-((4-((2-fluoro-4-((2-((3R,4S)-3-fluoro-4-hydroxypiperidin-1-yl)pyridin-4-yl)oxy)phenyl)amino)-7-methoxyquinazolin-6-yl)amino)piperidin-1-yl)prop-2-en-1-one]	100 to 300 nM	≥ 1000 nM	60 to 100 nM	60 to 100 nM	600 to 1000 nM
C=CC(=O)Nc1cc2c(Nc3ccc(Oc4ccnc(-c5nc(C)cs5)c4)cc3F)ncnc2cc1OCC [Example 168, N-(7-ethoxy-4-((2-fluoro-4-((2-(4-methylthiazol-2-yl)pyridin-4-yl)oxy)phenyl)amino)quinazolin-6-yl)acrylamide]	≥ 1000 nM	≥ 1000 nM	300 to 600 nM	≥ 1000 nM	≥ 1000 nM
C=CC(=O)N1CCC(Nc2cc3c(Nc4ccc(Oc5nc(-c6cnc(C7CC7)nc6)cs5)cc4F)ncnc3cc2OC)CC1 [Compound 51, 1-(4-((4-((4-((4-(2-cyclopropylpyrimidin-5-yl)thiazol-2-yl)oxy)-2-fluorophenyl)amino)-7-methoxyquinazolin-6-yl)amino)piperidin-1-yl)prop-2-en-1-one]	30 to 60 nM	100 to 300 nM	30 to 60 nM	30 to 60 nM	30 to 60 nM
C=CC(=O)N1CCC(Nc2cc3c(Nc4ccc(Oc5ccnc(C(=O)N(C)C)c5)cc4F)ncnc3cc2OC)CC1 [Example 182, 4-(4-((6-((1-acryloylpiperidin-4-yl)amino)-7-methoxyquinazolin-4-yl)amino)-3-fluorophenoxy)-N,N-dimethylpicolinamide]	300 to 600 nM	≥ 1000 nM	600 to 1000 nM	600 to 1000 nM	600 to 1000 nM
C=CC(=O)N1CCC(Nc2cc3c(Nc4ccc(Oc5ccnc(N6CC7(CC(O)C7)C6)c5)cc4F)ncnc3cc2OC)CC1 [Example 175, 1-(4-((4-((2-fluoro-4-((2-(6-hydroxy-2-azaspiro[3.3]heptan-2-yl)pyridin-4-yl)oxy)phenyl)amino)-7-methoxyquinazolin-6-yl)amino)piperidin-1-yl)prop-2-en-1-one]	30 to 60 nM	≥ 1000 nM	30 to 60 nM	30 to 60 nM	600 to 1000 nM
C=CC(=O)N1CCC(Nc2cc3c(Nc4ccc(Oc5nc(-c6nnc(C(C)C)o6)cs5)cc4F)ncnc3cc2OC)CC1 [Compound 4, 1-(4-((4-((2-fluoro-4-((4-(5-isopropyl-1,3,4-oxadiazol-2-yl)thiazol-2-yl)oxy)phenyl)amino)-7-methoxyquinazolin-6-yl)amino)piperidin-1-yl)prop-2-en-1-one]	100 to 300 nM	300 to 600 nM	100 to 300 nM	100 to 300 nM	300 to 600 nM
C=CC(=O)N1CCC(Nc2cc3c(Nc4ccc(Oc5ccnc(N6CCC(O)CC6)c5)c(Cl)c4)ncnc3cc2OC)CC1 [Example 229, 1-(4-((4-((3-chloro-4-((2-(4-hydroxypiperidin-1-yl)pyridin-4-yl)oxy)phenyl)amino)-7-methoxyquinazolin-6-yl)amino)piperidin-1-yl)prop-2-en-1-one]	100 to 300 nM	300 to 600 nM	60 to 100 nM	100 to 300 nM	100 to 300 nM
C=CC(=O)N1CCC(Nc2cc3c(Nc4ccc(Oc5ncc(N6C[C@@H](C)O[C@@H](C)C6)cn5)cc4F)ncnc3cc2OC)CC1 [Example 110, 1-(4-((4-((4-((5-((2R,6S)-2,6-dimethylmorpholino)pyrimidin-2-yl)oxy)-2-fluorophenyl)amino)-7-methoxyquinazolin-6-yl)amino)piperidin-1-yl)prop-2-en-1-one]	≥ 1000 nM	100 to 300 nM	≥ 1000 nM	≥ 1000 nM	< 30 nM
C=CC(=O)N1CCC(Nc2cc3c(Nc4ccc(Oc5ccnc(NC6CCOCC6)c5)cc4F)ncnc3cc2OC)CC1 [Compound 185, 1-(4-((4-((2-fluoro-4-((2-((tetrahydro-2H-pyran-4-yl)amino)pyridin-4-yl)oxy)phenyl)amino)-7-methoxyquinazolin-6-yl)amino)piperidin-1-yl)prop-2-en-1-one]	< 30 nM	100 to 300 nM	< 30 nM	< 30 nM	< 30 nM
C=CC(=O)N1CCC(Nc2cc3c(Nc4ccc(Oc5ccnc(N6CCNC(C)(C)C6)c5)cc4F)ncnc3cc2OC)CC1 [Example 226, 1-(4-((4-((4-((2-(3,3-dimethylpiperazin-1-yl)pyridin-4-yl)oxy)-2-fluorophenyl)amino)-7-methoxyquinazolin-6-yl)amino)piperidin-1-yl)prop-2-en-1-one]	≥ 1000 nM	≥ 1000 nM	300 to 600 nM	≥ 1000 nM	≥ 1000 nM
C=CC(=O)N1CCC(Nc2cc3c(Nc4ccc(Oc5nc(-c6ccc(C)nc6)cs5)cc4F)ncnc3cc2OC)CC1 [Compound 6, 1-(4-((4-((2-fluoro-4-((4-(6-methylpyridin-3-yl)thiazol-2-yl)oxy)phenyl)amino)-7-methoxyquinazolin-6-yl)amino)piperidin-1-yl)prop-2-en-1-one]	300 to 600 nM	300 to 600 nM	300 to 600 nM	300 to 600 nM	≥ 1000 nM
[2H]C([2H])([2H])Oc1cc2ncnc(Nc3ccc(Oc4nc(-c5ccc(C)nc5)cs4)cc3F)c2cc1NC1CCN(C(=O)C=C)CC1 [Compound 87, 1-(4-((4-((2-fluoro-4-((4-(6-methylpyridin-3-yl)thiazol-2-yl)oxy)phenyl)amino)-7-(methoxy-d3)quinazolin-6-yl)amino)piperidin-1-yl)prop-2-en-1-one]	30 to 60 nM	100 to 300 nM	30 to 60 nM	60 to 100 nM	100 to 300 nM
C=CC(=O)N1CCC(Oc2cc3c(Nc4ccc(Oc5ccnc(N6CC7C(C6)C7(F)F)c5)cc4F)ncnc3cc2OC)CC1 (centres unmarked) [Example 188, 1-(4-((4-((4-((2-(6,6-difluoro-3-azabicyclo[3.1.0]hexan-3-yl)pyridin-4-yl)oxy)-2-fluorophenyl)amino)-7-methoxyquinazolin-6-yl)oxy)piperidin-1-yl)prop-2-en-1-one]	30 to 60 nM	100 to 300 nM	< 30 nM	< 30 nM	60 to 100 nM
C=CC(=O)N1CCC(Nc2cc3c(Nc4ccc(Oc5ccnc(N6C[C@H](F)[C@@H](F)C6)c5)cc4F)ncnc3cc2OC)CC1 [Example 264, 1-(4-((4-((4-((2-((3S,4S)-3,4-difluoropyrrolidin-1-yl)pyridin-4-yl)oxy)-2-fluorophenyl)amino)-7-methoxyquinazolin-6-yl)amino)piperidin-1-yl)prop-2-en-1-one]	< 30 nM	600 to 1000 nM	< 30 nM	< 30 nM	60 to 100 nM
C=CC(=O)N1CCC(Nc2cc3c(Nc4ccc(Oc5ccn(-c6cnc(C)cn6)n5)cc4F)ncnc3cc2OC)CC1 [Example 33, 1-(4-((4-((2-fluoro-4-((1-(5-methylpyrazin-2-yl)-1H-pyrazol-3-yl)oxy)phenyl)amino)-7-methoxyquinazolin-6-yl)amino)piperidin-1-yl)prop-2-en-1-one]	100 to 300 nM	100 to 300 nM	100 to 300 nM	60 to 100 nM	300 to 600 nM
C=CC(=O)N1CCC(Nc2cc3c(Nc4ccc(Oc5ccnc(N6CCS(=O)(=O)CC6)c5)cc4F)ncnc3cc2OC)CC1 [Example 112, 1-(4-((4-((4-((2-(1,1-dioxidothiomorpholino)pyridin-4-yl)oxy)-2-fluorophenyl)amino)-7-methoxyquinazolin-6-yl)amino)piperidin-1-yl)prop-2-en-1-one]	600 to 1000 nM	≥ 1000 nM	100 to 300 nM	300 to 600 nM	≥ 1000 nM
C=CC(=O)N1CCC(Nc2cc3c(Nc4ccc(Oc5ccnc(N6CCO[C@@H](CO)C6)c5)cc4F)ncnc3cc2OC)CC1 [Example 124, (R)-1-(4-((4-((2-fluoro-4-((2-(2-(hydroxymethyl)morpholino)pyridin-4-yl)oxy)phenyl)amino)-7-methoxyquinazolin-6-yl)amino)piperidin-1-yl)prop-2-en-1-one]	60 to 100 nM	≥ 1000 nM	30 to 60 nM	30 to 60 nM	600 to 1000 nM
C=CC(=O)N1CCC(Nc2cc3c(Nc4ccc(Oc5ccnc(N6CCN(C)[C@H](C)C6)c5)cc4F)ncnc3cc2OC)CC1 [Example 180, (R)-1-(4-((4-((4-((2-(3,4-dimethylpiperazin-1-yl)pyridin-4-yl)oxy)-2-fluorophenyl)amino)-7-methoxyquinazolin-6-yl)amino)piperidin-1-yl)prop-2-en-1-one]	30 to 60 nM	≥ 1000 nM	30 to 60 nM	30 to 60 nM	≥ 1000 nM
